Assay [1] deals with HBV. The assay is described as follows: Inhibition of HBV replication dot-blot assay in HBV-producing hepatoma cell line. The following applies: Hepatitis B virus, 144 h; activity in Dot-Blot assay; HepG2-2.2.15 cells; reduction in HBV DNA levels, six days. The class given is cell-based. Summed up:
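HepG2-2.2.15 confluent monolayers were exposed to a compound dilution series for six days, with medium and compound renewed at day 3. HBV DNA in supernatant/lysate was quantified by dot-blot hybridization, and EC50 was derived from dose-response reduction in HBV DNA.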

Assay [2] concerns HBV. The assay is described as follows: HBV replication inhibition assay (encapsidated HBV DNA in supernatant, bDNA QuantiGene). To be noted: Hepatitis B virus, 144 h, HepG2.2.15 cells, supernatant at day 6, read-out: Extra HBV DNA. The class given is cell-based.

Turning to `O=C(Nc1cc(F)c(F)c(F)c1)c1ccc(F)c(SC2CC3C(C2)C3C(=O)O)c1` (mixture of isomers) [Compound 98, (cis/trans)-3-((2-fluoro-5-((3,4,5-trifluorophenyl)carbamoyl)phenyl)thio)bicyclo[3.1.0]hexane-6-carboxylic acid], the values for the EC50 in assay [1] and in assay [2] were under 10000 nM and 1300 nM, respectively.
The corresponding values for `CS(=O)(=O)NC(=O)C1C2CC(Sc3cc(C(=O)Nc4cc(F)c(F)c(F)c4)ccc3F)CC21` (mixture of isomers) [Compound 99, (cis/trans)-3-((2-Fluoro-5-((3,4,5-trifluorophenyl)carbamoyl)phenyl)thio)-N-(methylsulfonyl)bicyclo[3.1.0]hexane-6-carboxamide] are under 10000 nM and 4000 nM.
With `CC(O)CCSc1cc(C(=O)Nc2cc(F)c(F)c(F)c2)ccc1F` (racemic) [Compound 18, (±)-4-Fluoro-3-((3-hydroxybutyl)thio)-N-(3,4,5-trifluorophenyl)benzamide], the EC50 in assay [1] is under 10000 nM; in assay [2], 570 nM.
For `O=C(Nc1ccc(F)c(Cl)c1)c1ccnc(NS(=O)(=O)C2CCC(O)C2)c1` (racemic) [Compound 186, (±)-N-(3-Chloro-4-fluorophenyl)-2-(3-hydroxycyclopentanesulfonamido)isonicotinamide] the same measures were under 10000 nM and 2700 nM.
For the molecule `O=C(Nc1cc(F)c(F)c(F)c1)c1ccc(F)c(SC2CCCCC2)c1` [Compound 2, 3-(Cyclohexylthio)-4-fluoro-N-(3,4,5-trifluorophenyl)benzamide], the EC50 in assay [1] is under 10000 nM; in assay [2], 138 nM.
In the case of `O=C(Nc1cc(F)c(F)c(F)c1)c1ccc(F)c(SC2CCOCC2)c1` [Compound 4, 4-Fluoro-3-((tetrahydro-2H-pyran-4-yl)thio)-N-(3,4,5-trifluorophenyl)benzamide], the results for the EC50 in assay [1] and in assay [2] were under 10000 nM and 220 nM, respectively.
The corresponding values for `O=C(Nc1ccc(F)c(Cl)c1)c1ccc(F)c(SCC2(CCO)CC2)c1` [Compound 32, N-(3-Chloro-4-fluorophenyl)-4-fluoro-3-(((1-(2-hydroxyethyl)cyclopropyl)methyl)thio)benzamide] are under 10000 nM and 410 nM.
With `O=C(Nc1cc(F)c(F)c(F)c1)c1ccc(F)c(SCC2(CCO)CC2)c1` [Compound 33, 4-Fluoro-3-(((1-(2-hydroxyethyl)cyclopropyl)methyl)thio)-N-(3,4,5-trifluorophenyl)benzamide], the EC50 in assay [1] was under 10000 nM; in assay [2] it was 620 nM.
The corresponding values for `O=C(Nc1ccc(F)c(Cl)c1)c1cccc(SC2CCCCC2)c1` [Compound 35, N-(3-Chloro-4-fluorophenyl)-3-(cyclohexylthio)benzamide] are under 10000 nM and 1210 nM.
Take `O=C(Nc1ccc(F)c(Cl)c1)c1cccc(SCCO)c1` [Compound 36, N-(3-Chloro-4-fluorophenyl)-3-((2-hydroxyethyl)thio)benzamide]: the EC50 is under 10000 nM in assay [1] and 1340 nM in assay [2].
As for `O=C(Nc1ccc(F)c(Cl)c1)c1cccc(SC2CCCC2)c1` [Compound 37, N-(3-Chloro-4-fluorophenyl)-3-(cyclopentylthio)benzamide], the EC50 in assay [1] is under 10000 nM; in assay [2] it was 1070 nM.
The corresponding values for `CS(=O)(=O)NC(=O)[C@H]1CC[C@@H](Sc2cc(C(=O)Nc3cc(F)c(F)c(F)c3)ccc2F)CC1` [Compound 100, 4-Fluoro-3-(((1S,4S)-4-((methylsulfonyl)carbamoyl)cyclohexyl)thio)-N-(3,4,5-trifluorophenyl)benzamide] are under 10000 nM and 1700 nM.
The corresponding values for `O=C(Nc1ccc(F)c(Cl)c1)c1cccc(NS(=O)(=O)C2CC2)n1` [Compound 123, N-(3-Chloro-4-fluorophenyl)-6-(cyclopropanesulfonamido)picolinamide] are under 10000 nM and 3000 nM.

The record behind these values is EP3227262B1, “SULFIDE ALKYL AND PYRIDYL REVERSE SULFONAMIDE COMPOUNDS FOR HBV TREATMENT” (Novira Therapeutics Inc., priority 2014, dated 2016).
